# Experimental data as given in patent US20090099167A1, “Organic compounds” (Novartis Institutes for Biomedical Research, priority 2004, published 2009).
# Target: T1, human insulin receptor (Ins-R) (Homo sapiens, UniProt P06213)
# T1 construct: encoding the amino acid region 919-1343 of the intra-cytoplasmic kinase domain of the human insulin receptor; made in house; host or cells: baculovirus (Bac-to-Bac)
# Experiment: Ins-R tyrosine kinase assay, GST-Ins-R
# Type: biochemical
# Conditions: Table 4; read-out: Ins-R, activity (IC50 for kinase inhibition)
# Text: The inhibition of IGF-1R and Ins-R can be determined as follows: The baculovirus donor vector pfbgx3IGFIRcd is used to generate a recombinant baculovirus that expresses the amino acid region 950-1337 of the mature peptide cytoplasmic domain of the human IGF-IR. To generate the cDNA fragment encoding the amino acid region 919-1343 of the intra-cytoplasmic kinase domain of the human insulin receptor, pC5hInsR is used. The fragments of the human IGF-IR and Ins-R are cloned, expressed and small-scale purified as a factor Xa-cleavable glutathione-S-transferase (GST)-fusion protein using the Bac-to-Bac™ system (GIBCO BRL) of recombinant baculovirus generation. Virus containing media is collected from the transfected cell culture and used for infection to increase its titer. Virus containing media obtained after two rounds of infection is used for large-scale protein expression. Cell extracts are prepared and loaded onto a glutathione-Sepharose (Pharmacia) column. After washing, the GST-tagged proteins are then eluted with a glutathione-containing buffer. Purified protein is stored at −70° C. in elution buffer. Tyrosine protein kinase assays with purified GST-IGF-1R and GST-ins-R are carried in a final volume of 30 μl containing 20 mM Tris-HCl, pH 7.6, 10 mM MgCl2, 0.01 mM Na3VO4, 1% DMSO, 1 mM DTT, 3 μg/ml poly(Glu,Tyr) 4:1 and 10 μM ATP (γ-[^33P]-ATP 0.1 μCi). The assay is performed in 96-well plates at ambient temperature for 20 min and terminated by addition of 25 μl 0.05 M EDTA pH 7.0. An aliquot of 40 μl is spotted with a multichannel dispenser on Whatman P81 membranes mounted in a Millipore Microtiter filter manifold connected to a low vacuum source. After elimination of liquid, the membrane is transferred to a sequence of 4 washing baths containing 0.5% H3PO4 and one with EtOH (shaking incubation for 10 min each), dried, mounted onto a Hewlett Packard TopCount manifold added 10 μl Microscint® and counted. Compounds of formula (I) show up to 90% inhibition of Ins-R at 10,000 nM, preferably between 60-90% inhibition. The inhibition of Tek can be determined as follows: The procedure of the expression, purification and assay these kinases has been described. Fabbro et al., Pharmacol. Ther. 82(2-3) 293-301 (1999). In brief, the glutathione S-transferase (GST) gene from the pAcG1 vector (Pharmingen) is excised with EcoRV and EcoRI and inserted into the cloning site of the Fast-Bac baculoviral vector (GIBCO) creating a 5530 bp vector with N-terminal cloning sites derived from the pAcG1 fusion vector (FBG0). The C-terminal cloning site may be any cloning site (from the Fast-Bac vector) downstream of the N-terminal cloning site used. N-terminally GST-fused (pAcG1, Pharmingen) KDR, Flt-1, Flk-1, Tek and PDGFR-β kinase domains are obtained from ProQinase, Freiburg, Germany. Tek is recloned into the FBG1 vector by EcoRI excision and ligation into EcoRI digested FBG1 (FBG1-Tek). The coding sequences for the whole cytoplasmic domain of c-Kit (aa 544-976) and c-Fms (aa 538-972) are amplified by PCR from human uterus and from human bone marrow cDNA libraries (Clontech), respectively. The amplified DNA fragments are fused to GST by cloning them into FBG1 as BamHI-EcoRI insertions, to yield FBG1-c-Kit and FBG1-c-Fms. Tek is recloned into the FBG0 transfer vector by EcoRI excision and ligation into EcoRI digested FBG0 (FBG-Tie2/Tek). FGFR-1 and c-met kinase domains are obtained by PCR from human A431 cells. N-terminal primers contain an overhanging EcoRI site, while C-terminal primers contain a XhoI site to aid cloning into the transfer vectors. After digestion of both the PCR fragments and FBG0 the cleavage products are gel-purified and ligated together to form the kinase constructs (FBG-Met, FBG-FGFR-1).
# T1 sequence (P06213 958-1382 limits assumed): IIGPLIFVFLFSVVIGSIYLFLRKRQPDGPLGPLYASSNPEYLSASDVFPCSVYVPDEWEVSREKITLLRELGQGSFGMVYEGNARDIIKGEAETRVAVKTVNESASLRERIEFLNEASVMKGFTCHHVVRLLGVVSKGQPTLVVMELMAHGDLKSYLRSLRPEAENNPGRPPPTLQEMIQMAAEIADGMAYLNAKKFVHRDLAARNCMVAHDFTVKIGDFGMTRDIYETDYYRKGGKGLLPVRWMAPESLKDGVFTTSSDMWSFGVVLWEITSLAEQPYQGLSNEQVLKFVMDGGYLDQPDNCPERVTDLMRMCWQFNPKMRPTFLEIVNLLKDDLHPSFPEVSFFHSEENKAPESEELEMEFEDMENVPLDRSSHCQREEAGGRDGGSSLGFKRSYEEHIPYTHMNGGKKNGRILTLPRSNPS
row,Structure (SMILES),IC50 [µM]
1,"CN1CCN(c2ccc(-c3cnn4c(N)c(-c5cccc(O)c5)cnc34)cc2)CC1 [Example 1, 3-{7-Amino-3-[4-(4-methyl-piperazin-1-yl)-phenyl]-pyrazolo[1,5-a]pyrimidin-6-yl}-phenol]",< 10

# Same assay, conditions: Table 5; read-out: Ins-R, IC50 class
row,Structure (SMILES),IC50 [µM]
1,"Cc1nc2c(-c3cccc(N4CCN(C)CC4)c3)cnn2c(N)c1-c1cccc(Cl)c1 [Example 72, 6-(3-Chloro-phenyl)-5-methyl-3-[3-(4-methyl-piperazin-1-yl)-phenyl]-pyrazolo[1,5-a]pyrimidin-7-ylamine]",1 to 10
2,"Cc1nc2c(-c3ccc(N4CCN(C)CC4)cc3)cnn2c(N)c1-c1cccc(Cl)c1 [Example 73, 6-(3-Chloro-phenyl)-5-methyl-3-[4-(4-methyl-piperazin-1-yl)-phenyl]-pyrazolo[1,5-a]pyrimidin-7-ylamine]",> 10
3,"COc1cc(N2CCN(C)CC2)ccc1-c1cnn2c(N)c(-c3cccc(O)c3)cnc12 [Example 76, 3-{7-Amino-3-[2-methoxy-4-(4-methyl-piperazin-1-yl)-phenyl]-pyrazolo[1,5-a]pyrimidin-6-yl}-phenol]",1 to 10
4,"Cc1nc2c(-c3cccc(N4CCN(C)CC4)c3)cnn2c(N)c1-c1ccc(F)cc1 [Example 80, 6-(4-Fluoro-phenyl)-5-methyl-3-[3-(4-methyl-piperazin-1-yl)-phenyl]-pyrazolo[1,5-a]pyrimidin-7-ylamine]",> 10
5,"Cc1nc2c(-c3ccc(N4CCN(C)CC4)cc3)cnn2c(N)c1-c1ccc(F)c(Cl)c1 [Example 83, 6-(3-Chloro-4-fluoro-phenyl)-5-methyl-3-[4-(4-methyl-piperazin-1-yl)-phenyl]-pyrazolo[1,5-a]pyrimidin-7-ylamine]",> 10
6,"COc1ccc(-c2cnn3c(N)c(-c4cccc(Cl)c4)c(C)nc23)cc1 [Example 88, 6-(3-Chloro-phenyl)-3-(4-methoxy-phenyl)-5-methyl-pyrazolo[1,5-a]pyrimidin-7-ylamine]",> 10
7,"Cc1nc2c(-c3cccc(N4CCN(CCO)CC4)c3)cnn2c(N)c1-c1cccc(Cl)c1 [Example 90, 2-(4-{3-[7-Amino-6-(3-chloro-phenyl)-5-methyl-pyrazolo[1,5-a]pyrimidin-3-yl]-phenyl}-piperazin-1-yl)-ethanol]",> 10
